Values joined by “and” are separate entries in the source; they are usually repeats but may differ in a detail not shown here. Identical values can stand only once. Toxic doses and inconclusive results are not listed. Rule as the data show it: active = T/C of 150% or more; inactive = T/C below 125%.
Tested on: L1210 leukemia ip in BDF1 mice, survival T/C
Assay: NCI In Vivo Anticancer Drug Screen. Data for tumor model L1210 Leukemia (intraperitoneal) in B6D2F1 (BDF1) mice
Details: endpoint: mean survival time, higher = longer survival
How it was run: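 Antitumor effect is assessed in tumor-bearing animals. Survival in the compound arm is compared with a vehicle-dosed control arm and expressed as their quotient.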

[1] = dose: 100.0 mg/kg/injection, schedule: Q01DX009 (ip), vehicle: Klucel (hydroxypropylcellulose) (HPC)
[2] = dose: 100.0 mg/kg/injection, schedule: Q04DX003 (ip), vehicle: Klucel (hydroxypropylcellulose) (HPC)
[3] = dose: 200.0 mg/kg/injection, schedule: Q01DX009 (ip), vehicle: Klucel (hydroxypropylcellulose) (HPC)
[4] = dose: 200.0 mg/kg/injection, schedule: Q04DX003 (ip), vehicle: Klucel (hydroxypropylcellulose) (HPC)
[5] = dose: 400.0 mg/kg/injection, schedule: Q01DX009 (ip), vehicle: Klucel (hydroxypropylcellulose) (HPC)
[6] = dose: 400.0 mg/kg/injection, schedule: Q04DX003 (ip), vehicle: Klucel (hydroxypropylcellulose) (HPC)
[7] = dose: 100.0 mg/kg/injection, schedule: Q01DX001 (ip), vehicle: carboxymethylcellulose (CMC)
[8] = dose: 200.0 mg/kg/injection, schedule: Q01DX001 (ip), vehicle: carboxymethylcellulose (CMC)
[9] = dose: 50.0 mg/kg/injection, schedule: Q01DX001 (ip), vehicle: saline
[10] = dose: 100.0 mg/kg/injection, schedule: Q04DX002 (ip), vehicle: Klucel (hydroxypropylcellulose) (HPC)
[11] = dose: 200.0 mg/kg/injection, schedule: Q04DX002 (ip), vehicle: Klucel (hydroxypropylcellulose) (HPC)
[12] = dose: 100.0 mg/kg/injection, schedule: Q01DX009 (ip), vehicle: saline
[13] = dose: 100.0 mg/kg/injection, schedule: Q04DX003 (ip), vehicle: saline
[14] = dose: 200.0 mg/kg/injection, schedule: Q01DX009 (ip), vehicle: saline
[15] = dose: 200.0 mg/kg/injection, schedule: Q04DX003 (ip), vehicle: saline
[16] = dose: 400.0 mg/kg/injection, schedule: Q01DX009 (ip), vehicle: saline
[17] = dose: 400.0 mg/kg/injection, schedule: Q04DX003 (ip), vehicle: saline
[18] = dose: 100.0 mg/kg/injection, schedule: Q01DX001 (ip), vehicle: saline
[19] = dose: 200.0 mg/kg/injection, schedule: Q01DX001 (ip), vehicle: saline
[20] = dose: 400.0 mg/kg/injection, schedule: Q01DX001 (ip), vehicle: saline
[21] = dose: 100.0 mg/kg/injection, schedule: Q01DX009 (ip), vehicle: saline sonified
[22] = dose: 200.0 mg/kg/injection, schedule: Q01DX009 (ip), vehicle: saline sonified
[23] = dose: 400.0 mg/kg/injection, schedule: Q01DX009 (ip), vehicle: saline sonified
[24] = dose: 400.0 mg/kg/injection, schedule: Q04DX002 (ip), vehicle: Klucel (hydroxypropylcellulose) (HPC)
[25] = dose: 25.0 mg/kg/injection, schedule: Q04DX003 (ip), vehicle: Klucel (hydroxypropylcellulose) (HPC)
[26] = dose: 50.0 mg/kg/injection, schedule: Q04DX003 (ip), vehicle: Klucel (hydroxypropylcellulose) (HPC)
[27] = dose: 100.0 mg/kg/injection, schedule: Q04DX003 (ip), vehicle: saline with Tween-80
[28] = dose: 200.0 mg/kg/injection, schedule: Q04DX003 (ip), vehicle: saline with Tween-80
[29] = dose: 400.0 mg/kg/injection, schedule: Q04DX003 (ip), vehicle: saline with Tween-80

Measured: T/C

Cc1ccc(C)c(NC(=O)Oc2cc(C)c(Cl)cc2C(C)C)c1
inactive: [1] 92 % of control and 102 % of control | [2] 103 % of control | [3] 100 % of control and 87 % of control | [4] 115 % of control | [5] 102 % of control and 90 % of control | [6] 97 % of control

C=CCc1c2c(ccc(=O)c1O)-c1c(cc(OC)c(OC)c1OC)CCC2NC(C)=O (centres undefined)
inactive: [7] 117 % of control | dose: 177.6 mg/kg/injection, schedule: Q01DX001 (ip), vehicle: carboxymethylcellulose (CMC) 110 % of control and 119 % of control | [8] 117 % of control | dose: 266.8 mg/kg/injection, schedule: Q01DX001 (ip), vehicle: carboxymethylcellulose (CMC) 95 % of control and 118 % of control

c1ccc(OCCC[P+](c2ccccc2)(c2ccccc2)c2ccccc2)cc1
inactive: [9] 100 % of control

CCOC(=O)C1C(=O)Nc2c(ccc3ccccc23)N1C(C)=O (centres undefined)
inactive: dose: 50.0 mg/kg/injection, schedule: Q04DX002 (ip), vehicle: Klucel (hydroxypropylcellulose) (HPC) 96 % of control | [10] 93 % of control | [11] 93 % of control

COCCCN=C(N)C(N)=NCCCOC
inactive: [12] 99 % of control | [13] 100 % of control and 98 % of control | [14] 98 % of control | [15] 93 % of control and 101 % of control | [16] 98 % of control | [17] 93 % of control and 95 % of control

Nc1ncc(CBr)c(N)n1
inactive: [13] 97 % of control | [15] 96 % of control

CC(=O)Nc1ccc(SC2(Sc3ccc(NC(C)=O)cc3)c3ccccc3-c3ccccc32)cc1
inactive: [18] 92 % of control | [19] 98 % of control | [20] 100 % of control

ClC1=C(Cl)C2(Cl)C(Br)C(Br)C1(Cl)C2(Cl)Cl (centres undefined)
inactive: [21] 95 % of control | [2] 102 % of control | [22] 96 % of control | [4] 93 % of control | [23] 95 % of control | [6] 96 % of control

O=Cc1ccc2c(c1)C(=O)c1ccccc1C2=O
inactive: [10] 90 % of control | [11] 97 % of control | [24] 93 % of control

Cc1c(O)ccc2c1CCCC2
inactive: [25] 103 % of control | [26] 97 % of control | [21] 92 % of control | [2] 92 % of control and 117 % of control | [22] 88 % of control | [4] 107 % of control | [23] 94 % of control | [6] 103 % of control

Cc1ccc(S(=O)(=O)N(C)c2cc(Cl)c(C(=O)O)cc2Cl)cc1
inactive: dose: 100.0 mg/kg/injection, schedule: Q04DX003 (ip), vehicle: acetone 90 % of control | dose: 200.0 mg/kg/injection, schedule: Q04DX003 (ip), vehicle: acetone 93 % of control | dose: 400.0 mg/kg/injection, schedule: Q04DX003 (ip), vehicle: acetone 90 % of control

CCN=C(N)C(C)SS(=O)(=O)O (centres undefined)
inactive: dose: 100.0 mg/kg/injection, schedule: Q04DX002 (ip), vehicle: saline 106 % of control | dose: 200.0 mg/kg/injection, schedule: Q04DX002 (ip), vehicle: saline 98 % of control

CC(=O)OC1CCC(C)(C2CCC3(C)C(C(C)CCCC(C)C)CCC3C2CC(=O)O)C(=O)C1 (centres undefined)
inactive: [27] 87 % of control | dose: 200.0 mg/kg/injection, schedule: Q01DX009 (ip), vehicle: saline with Tween-80 97 % of control | [28] 91 % of control | [29] 91 % of control

Nc1nc(Cl)c(Br)c(=O)[nH]1
inactive: dose: 25.0 mg/kg/injection, schedule: Q01DX Z (ip), vehicle: methylcellulose (MC) 98 % of control | dose: 50.0 mg/kg/injection, schedule: Q01DX Z (ip), vehicle: methylcellulose (MC) 89 % of control

c1ccc2c(CCCc3nccc4ccccc34)nccc2c1
inactive: dose: 100.0 mg/kg/injection, schedule: Q01DX001 (ip), vehicle: Klucel (hydroxypropylcellulose) (HPC) 102 % of control | [2] 108 % of control | dose: 200.0 mg/kg/injection, schedule: Q01DX001 (ip), vehicle: Klucel (hydroxypropylcellulose) (HPC) 104 % of control | [4] 108 % of control | dose: 400.0 mg/kg/injection, schedule: Q01DX001 (ip), vehicle: Klucel (hydroxypropylcellulose) (HPC) 108 % of control | [6] 102 % of control

O=C(CNC(=O)c1ccccc1)c1ccccc1
inactive: [10] 105 % of control | [11] 102 % of control | [24] 108 % of control

C=CC(C)(C)c1c(OC(C)=O)cc2oc3c(OC(C)=O)c(OC(C)=O)cc(CC=C(C)C)c3c(=O)c2c1O
inactive: [7] 95 % of control | [8] 92 % of control | dose: 400.0 mg/kg/injection, schedule: Q01DX001 (ip), vehicle: carboxymethylcellulose (CMC) 111 % of control

Cc1ccc(C(c2ccccc2)C(COS(C)(=O)=O)COS(C)(=O)=O)cc1 (centres undefined)
inactive: dose: 75.0 mg/kg/injection, schedule: Q04DX002 (ip), vehicle: Klucel (hydroxypropylcellulose) (HPC) 90 % of control | dose: 150.0 mg/kg/injection, schedule: Q04DX002 (ip), vehicle: Klucel (hydroxypropylcellulose) (HPC) 97 % of control | dose: 300.0 mg/kg/injection, schedule: Q04DX002 (ip), vehicle: Klucel (hydroxypropylcellulose) (HPC) 108 % of control

O=C(N/N=C/c1ccc2c(c1)OCO2)c1ccco1
inactive: dose: 100.0 mg/kg/injection, schedule: Q01DX001 (ip), vehicle: other 96 % of control | dose: 200.0 mg/kg/injection, schedule: Q01DX001 (ip), vehicle: other 93 % of control | dose: 400.0 mg/kg/injection, schedule: Q01DX001 (ip), vehicle: other 98 % of control

CCOC(=O)c1c(C)[nH]oc1=O
inactive: [13] 111 % of control | [15] 102 % of control | [17] 96 % of control

Nc1ccc(N)nc1
inactive: [1] 98 % of control | [2] 95 % of control | [3] 98 % of control | [4] 93 % of control | [5] 94 % of control | [6] 98 % of control

O=C1CCC(N2C(=O)c3ccccc3C2=O)C(=O)N1 (centres undefined)
inactive: dose: 25.0 mg/kg/injection, schedule: Q01DX009 (ip), vehicle: Klucel (hydroxypropylcellulose) (HPC) 112 % of control | [25] 109 % of control | dose: 31.3 mg/kg/injection, schedule: Q01DX Z (ip), vehicle: saline 102 % of control | [9] 105 % of control | dose: 50.0 mg/kg/injection, schedule: Q01DX009 (ip), vehicle: Klucel (hydroxypropylcellulose) (HPC) 111 % of control | [26] 95 % of control | dose: 62.5 mg/kg/injection, schedule: Q01DX Z (ip), vehicle: saline 94 % of control | [18] 105 % of control | [1] 103 % of control | [12] 96 % of control | [2] 98 % of control | dose: 125.0 mg/kg/injection, schedule: Q01DX Z (ip), vehicle: saline 104 % of control | [19] 111 % of control | [3] 100 % of control | [14] 102 % of control | [4] 98 % of control | dose: 250.0 mg/kg/injection, schedule: Q01DX Z (ip), vehicle: saline 102 % of control | [20] 109 % of control | [5] 101 % of control | [16] 98 % of control | [6] 106 % of control | dose: 800.0 mg/kg/injection, schedule: Q01DX009 (ip), vehicle: saline 95 % of control

O=[N+]([O-])c1ccc(N2N=NC(c3ccccc3)C2(c2ccccc2)N2CCOCC2)cc1 (centres undefined)
inactive: dose: 150.0 mg/kg/injection, schedule: Q01DX001 (ip), vehicle: saline 89 % of control

Cc1ccc(C(=O)O)cc1[N+](=O)[O-]
inactive: [2] 95 % of control | [4] 92 % of control | [6] 103 % of control

COc1ccc(OC)c(NC(=O)Oc2ccc(Cl)c(C)c2)c1
inactive: [27] 90 % of control | [28] 87 % of control | [29] 93 % of control

From PubChem BioAssay AID248 (DTP/NCI, 2004)
